Results: ChEMBL document CHEMBL1142151, “Association of QnrB determinants and production of extended-spectrum beta-lactamases or plasmid-mediated AmpC beta-lactamases in clinical isolates of Klebsiella pneumoniae” (2007)
≈ marks a conversion by molar mass, not a printed value.

Key:
Type in all cases: functional
Escherichia coli [1] = assay: Inhibitory activity against azide-resistant Escherichia coli J53
Escherichia coli [2] = assay: Inhibitory activity against Escherichia coli 12-1502
Klebsiella pneumoniae [3] = assay: Inhibitory activity against Klebsiella pneumoniae 12-1183
Escherichia coli [4] = assay: Inhibitory activity against azide-resistant Escherichia coli J53 T12-1183
Klebsiella pneumoniae [5] = assay: Inhibitory activity against Klebsiella pneumoniae 35
Escherichia coli [6] = assay: Inhibitory activity against azide-resistant Escherichia coli J53 T35
Klebsiella pneumoniae [7] = assay: Inhibitory activity against Klebsiella pneumoniae 07-006
Escherichia coli [8] = assay: Inhibitory activity against azide-resistant Escherichia coli J53 T07-006
Klebsiella pneumoniae [9] = assay: Inhibitory activity against Klebsiella pneumoniae 03-222
Escherichia coli [10] = assay: Inhibitory activity against azide-resistant Escherichia coli J53 T03-222
Escherichia coli [11] = assay: Inhibitory activity against azide-resistant Escherichia coli J53 T12-1502

Compound `CO/N=C(\C(=O)N[C@@H]1C(=O)N2C(C(=O)O)=C(COC(C)=O)CS[C@H]12)c1csc(N)n1` [CEFOTAXIME] has an MIC (Escherichia coli [1]) of less than 0.25 µg/mL, an MIC (Escherichia coli [2]) of 64 µg/mL (≈ 141 µM) and an MIC (Klebsiella pneumoniae [3]) of 16 µg/mL (≈ 35.1 µM). For the same compound, the MIC (Escherichia coli [4]) was 4 µg/mL (≈ 8.78 µM), the MIC (Klebsiella pneumoniae [5]) was greater than 128 µg/mL and the MIC (Escherichia coli [6]) was 16 µg/mL (≈ 35.1 µM). It also gave an MIC (Klebsiella pneumoniae [7]) of 64 µg/mL (≈ 141 µM), an MIC (Escherichia coli [8]) of 16 µg/mL (≈ 35.1 µM) and an MIC (Klebsiella pneumoniae [9]) of 4 µg/mL (≈ 8.78 µM). It also gave an MIC (Escherichia coli [10]) of 2 µg/mL (≈ 4.39 µM) and an MIC (Escherichia coli [11]) of 64 µg/mL (≈ 141 µM).
`CO[C@@]1(NC(=O)Cc2cccs2)C(=O)N2C(C(=O)O)=C(COC(N)=O)CS[C@@H]21` [CEFOXITIN] was tested, and the MIC (Escherichia coli [1]) was 4 µg/mL (≈ 9.36 µM), the MIC (Escherichia coli [2]) was greater than 128 µg/mL and the MIC (Klebsiella pneumoniae [3]) was greater than 128 µg/mL. The MIC (Escherichia coli [4]) was 32 µg/mL (≈ 74.9 µM), the MIC (Klebsiella pneumoniae [5]) was 32 µg/mL (≈ 74.9 µM) and the MIC (Escherichia coli [6]) was 4 µg/mL (≈ 9.36 µM). The MIC (Klebsiella pneumoniae [7]) was 16 µg/mL (≈ 37.4 µM), the MIC (Escherichia coli [8]) was 4 µg/mL (≈ 9.36 µM) and the MIC (Klebsiella pneumoniae [9]) was 16 µg/mL (≈ 37.4 µM). It also gave an MIC (Escherichia coli [10]) of 4 µg/mL (≈ 9.36 µM) and an MIC (Escherichia coli [11]) greater than 128 µg/mL.
`CC(C)(O/N=C(\C(=O)N[C@@H]1C(=O)N2C(C(=O)[O-])=C(C[n+]3ccccc3)CS[C@H]12)c1csc(N)n1)C(=O)O` [CEFTAZIDIME] gave an MIC (Escherichia coli [1]) of 1 µg/mL (≈ 1.83 µM), an MIC (Escherichia coli [2]) of 128 µg/mL (≈ 234 µM) and an MIC (Klebsiella pneumoniae [3]) of 128 µg/mL (≈ 234 µM). For the same compound, the MIC (Escherichia coli [4]) was 128 µg/mL (≈ 234 µM), the MIC (Klebsiella pneumoniae [5]) was greater than 128 µg/mL and the MIC (Escherichia coli [6]) was 128 µg/mL (≈ 234 µM). It also gave an MIC (Klebsiella pneumoniae [7]) of 128 µg/mL (≈ 234 µM), an MIC (Escherichia coli [8]) of 128 µg/mL (≈ 234 µM) and an MIC (Klebsiella pneumoniae [9]) of 128 µg/mL (≈ 234 µM). The MIC (Escherichia coli [10]) was 64 µg/mL (≈ 117 µM) and the MIC (Escherichia coli [11]) was 64 µg/mL (≈ 117 µM).
With `O=C(O)c1cn(C2CC2)c2cc(N3CCNCC3)c(F)cc2c1=O` [CIPROFLOXACIN] the MIC (Klebsiella pneumoniae [3]) was greater than 16 µg/mL, the MIC (Klebsiella pneumoniae [5]) was 16 µg/mL (≈ 48.3 µM) and the MIC (Klebsiella pneumoniae [7]) was 16 µg/mL (≈ 48.3 µM). It also gave an MIC (Klebsiella pneumoniae [9]) of 16 µg/mL (≈ 48.3 µM).
`C[C@H]1COc2c(N3CCN(C)CC3)c(F)cc3c(=O)c(C(=O)O)cn1c23.C[C@H]1COc2c(N3CCN(C)CC3)c(F)cc3c(=O)c(C(=O)O)cn1c23.O` [LEVOFLOXACIN] showed an MIC (Escherichia coli [2]) of 0.25 µg/mL, an MIC (Klebsiella pneumoniae [3]) greater than 16 µg/mL and an MIC (Klebsiella pneumoniae [5]) of 4 µg/mL. For the same compound, the MIC (Escherichia coli [6]) was 0.25 µg/mL, the MIC (Klebsiella pneumoniae [7]) was 8 µg/mL and the MIC (Escherichia coli [8]) was 0.25 µg/mL. The MIC (Klebsiella pneumoniae [9]) was 16 µg/mL, the MIC (Escherichia coli [10]) was 0.25 µg/mL and the MIC (Escherichia coli [11]) was 0.25 µg/mL.
`COc1c(N2C[C@@H]3CCCN[C@@H]3C2)c(F)cc2c(=O)c(C(=O)O)cn(C3CC3)c12` [MOXIFLOXACIN] gave an MIC (Escherichia coli [2]) of 0.5 µg/mL (≈ 1.25 µM), an MIC (Klebsiella pneumoniae [3]) greater than 8 µg/mL and an MIC (Escherichia coli [4]) of 1 µg/mL (≈ 2.49 µM). The MIC (Klebsiella pneumoniae [5]) was greater than 8 µg/mL, the MIC (Escherichia coli [6]) was 0.5 µg/mL (≈ 1.25 µM) and the MIC (Klebsiella pneumoniae [7]) was 8 µg/mL (≈ 19.9 µM). It also gave an MIC (Escherichia coli [8]) of 1 µg/mL (≈ 2.49 µM), an MIC (Klebsiella pneumoniae [9]) of 8 µg/mL (≈ 19.9 µM) and an MIC (Escherichia coli [10]) of 0.5 µg/mL (≈ 1.25 µM). The MIC (Escherichia coli [11]) was 0.5 µg/mL (≈ 1.25 µM).
`CCn1cc(C(=O)O)c(=O)c2ccc(C)nc21` [NALIDIXIC ACID] was tested, and the MIC (Escherichia coli [1]) was 8 µg/mL (≈ 34.4 µM), the MIC (Escherichia coli [2]) was 16 µg/mL (≈ 68.9 µM) and the MIC (Klebsiella pneumoniae [3]) was greater than 64 µg/mL. For the same compound, the MIC (Escherichia coli [4]) was 32 µg/mL (≈ 138 µM), the MIC (Klebsiella pneumoniae [5]) was greater than 64 µg/mL and the MIC (Escherichia coli [6]) was 32 µg/mL (≈ 138 µM). It also gave an MIC (Klebsiella pneumoniae [7]) greater than 64 µg/mL, an MIC (Escherichia coli [8]) of 32 µg/mL (≈ 138 µM) and an MIC (Klebsiella pneumoniae [9]) greater than 64 µg/mL. The MIC (Escherichia coli [10]) was 32 µg/mL (≈ 138 µM) and the MIC (Escherichia coli [11]) was 32 µg/mL (≈ 138 µM).
